# In patent publication US9650339B2, “Inhibitors of histone demethylases” (Gilead Sciences, Inc., priority 2013, dated 2017):
# pEC50, pIC50: −log10 of the molar value. Read-outs that look alike come from different tables or passages of the source.
# Columns and labels:
# [1] = molecular target: KDM6A (UTX) (Homo sapiens, UniProt O15550); assay: Histone lysine demethylase AlphaLISA assay, KDM6A; format: biochemical
# Experimental: (§1) Assays are performed analogously to the protocol described by PerkinElmer (Roy et al. PerkinElmer Technical Note: AlphaLISA #12, April 2011)
# (§2) Enzymes are dissolved in enzyme buffer and incubated for 10 min before being added to 3% DMSO solutions of compounds in enzyme buffer. Incubated for another 10 minutes, before substrate solution is added and the reaction mixture is incubated at room temperature. 10 μL acceptor beads, suspended in Epigenetic Buffer (Perkin Elmer AL008) from stock, are added and the suspension is incubated in the dark at room temperature, before a suspension of streptavidin donor beads (Perkin Elmer 6760002) in Epigenetic Buffer is added. After incubation at room temperature in the dark the plates are read. […]
# BK27M3: Biotin-ATKAAR(Kme3)SAPATGGVKKPHRY-NH2? (Caslo, Denmark) […]
# (§3) Substrate Solution: Substrate, 25 μM L-Asc, and 10 μM α-KG in Buffer A.
# [2] = molecular target: T1, KDM4C (JMJD2C) (Homo sapiens, UniProt Q9H3R0); assay: Histone lysine demethylase AlphaLISA assay, KDM4C; format: biochemical
# T1 sequence (Q9H3R0 1-349): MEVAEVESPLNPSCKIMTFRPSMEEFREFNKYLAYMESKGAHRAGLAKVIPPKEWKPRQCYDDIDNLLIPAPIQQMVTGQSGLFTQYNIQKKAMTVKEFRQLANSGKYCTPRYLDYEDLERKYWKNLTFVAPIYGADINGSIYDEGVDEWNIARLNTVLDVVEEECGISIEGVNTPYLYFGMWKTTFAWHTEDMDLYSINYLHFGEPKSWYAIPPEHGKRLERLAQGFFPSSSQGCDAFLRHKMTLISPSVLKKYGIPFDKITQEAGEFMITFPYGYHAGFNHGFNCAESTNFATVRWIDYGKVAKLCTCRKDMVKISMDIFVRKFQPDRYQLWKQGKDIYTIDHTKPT
# Experimental: as §1
# Enzymes are dissolved in enzyme buffer and incubated for 10 min before being added to 3% DMSO solutions of compounds in enzyme buffer. Incubated for another 10 minutes, before substrate solution is added and the reaction mixture is incubated at room temperature. 10 μL acceptor beads, suspended in Epigenetic Buffer (Perkin Elmer AL008) from stock, are added and the suspension is incubated in the dark at room temperature, before a suspension of streptavidin donor beads (Perkin Elmer 6760002) in Epigenetic Buffer is added. After incubation at room temperature in the dark the plates are read.
# BK9M3: Biotin-ARTKQTAR(KMe3)STGGKAPRKQ-NH2 (Caslo, Denmark) […]
# as §3
# [3] = molecular target: T2, KDM5B (PLU-1) (Homo sapiens, UniProt Q9UGL1); assay: Histone lysine demethylase AlphaLISA assay, KDM5B; format: biochemical
# T2 sequence (Q9UGL1 1-809): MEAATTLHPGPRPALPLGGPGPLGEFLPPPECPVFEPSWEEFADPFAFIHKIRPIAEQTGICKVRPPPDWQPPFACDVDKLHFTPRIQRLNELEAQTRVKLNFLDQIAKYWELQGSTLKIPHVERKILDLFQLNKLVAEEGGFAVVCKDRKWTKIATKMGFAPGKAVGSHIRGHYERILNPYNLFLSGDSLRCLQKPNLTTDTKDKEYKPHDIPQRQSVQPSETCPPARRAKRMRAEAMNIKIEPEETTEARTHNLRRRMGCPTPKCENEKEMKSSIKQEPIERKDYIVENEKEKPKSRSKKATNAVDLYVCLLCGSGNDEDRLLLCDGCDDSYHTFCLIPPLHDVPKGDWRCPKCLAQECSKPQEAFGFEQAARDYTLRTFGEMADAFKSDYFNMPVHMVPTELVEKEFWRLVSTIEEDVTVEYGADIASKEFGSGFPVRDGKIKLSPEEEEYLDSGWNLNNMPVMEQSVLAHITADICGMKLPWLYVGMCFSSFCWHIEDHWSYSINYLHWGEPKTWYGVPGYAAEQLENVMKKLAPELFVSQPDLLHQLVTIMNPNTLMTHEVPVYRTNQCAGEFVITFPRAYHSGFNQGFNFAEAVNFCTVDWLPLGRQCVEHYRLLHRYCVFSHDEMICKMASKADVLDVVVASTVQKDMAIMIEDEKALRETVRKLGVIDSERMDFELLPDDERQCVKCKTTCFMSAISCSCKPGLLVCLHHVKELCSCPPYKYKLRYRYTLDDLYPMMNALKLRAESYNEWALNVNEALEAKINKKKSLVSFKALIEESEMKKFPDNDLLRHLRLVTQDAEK
# Experimental: as §1, §2
# H3K4M3B: H-ART(Kme3)QTARKSTGGKAPRKQLA-NH-Biotin (Caslo, Denmark) […]
# as §3
# [4] = tested on: MCF7 cells; assay: Cell proliferation assay MCF7; format: cell-based; settings: MCF7 human breast cancer cells; 120 hours; ATPlite 1 Step
# Experimental: MCF7 cells were seeded in multi well plates at a density optimized to give approximately 90% confluent cells at the time of harvest. Cells were incubated for 24 hours before addition of compound. Compounds were diluted in complete medium and added to the plates in duplicates. The final concentration of DMSO was maximum 0.5%. Complete medium used was DMEM with GlutaMAX containing 10% FBS and pen/strep.
# 120 hours after addition of compounds, the plates were harvested and analyzed by ATPlite 1 Step (Perkin Elmer, cat no 6016739) according to the manufactures recommendation.
# [5] = molecular target: T3, KDM2B (FBXL10) (Homo sapiens, UniProt Q8NHM5); assay: Histone lysine demethylase AlphaLISA assay, KDM2B; format: biochemical; settings: read-out: KDM2B HDME Inhibition IC50
# T3 sequence (Q8NHM5 1-650): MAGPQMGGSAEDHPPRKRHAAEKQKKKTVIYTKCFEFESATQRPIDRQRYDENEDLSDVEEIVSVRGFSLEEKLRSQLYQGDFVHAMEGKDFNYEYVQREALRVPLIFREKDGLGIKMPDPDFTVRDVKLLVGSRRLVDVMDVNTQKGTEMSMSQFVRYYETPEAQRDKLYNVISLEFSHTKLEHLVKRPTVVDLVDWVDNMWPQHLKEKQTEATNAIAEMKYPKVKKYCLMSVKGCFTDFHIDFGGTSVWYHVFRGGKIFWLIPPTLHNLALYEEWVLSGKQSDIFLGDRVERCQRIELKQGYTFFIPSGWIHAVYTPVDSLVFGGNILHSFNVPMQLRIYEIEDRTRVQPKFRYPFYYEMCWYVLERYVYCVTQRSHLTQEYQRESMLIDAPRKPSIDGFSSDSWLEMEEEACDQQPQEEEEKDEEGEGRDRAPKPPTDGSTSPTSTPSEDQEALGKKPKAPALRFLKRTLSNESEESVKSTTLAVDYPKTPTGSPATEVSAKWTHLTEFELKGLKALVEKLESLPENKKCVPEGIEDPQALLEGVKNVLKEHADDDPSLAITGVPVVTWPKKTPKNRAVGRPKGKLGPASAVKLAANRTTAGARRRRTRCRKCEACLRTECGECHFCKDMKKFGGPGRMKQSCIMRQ
# Experimental: as §1, §2
# BH3K36M2: RKAAPATGGVK(Me2)KPHRYRPGTVK-(BIOTIN)? (Anaspec)
# as §3
# [6] = read-out: KDM6A HDME Inhibition IC50
# [7] = read-out: KDM4C HDME Inhibition IC50
# [8] = read-out: KDM5B HDME Inhibition IC50
# Chain of KDM6A (UTX) (O15550 919-1401): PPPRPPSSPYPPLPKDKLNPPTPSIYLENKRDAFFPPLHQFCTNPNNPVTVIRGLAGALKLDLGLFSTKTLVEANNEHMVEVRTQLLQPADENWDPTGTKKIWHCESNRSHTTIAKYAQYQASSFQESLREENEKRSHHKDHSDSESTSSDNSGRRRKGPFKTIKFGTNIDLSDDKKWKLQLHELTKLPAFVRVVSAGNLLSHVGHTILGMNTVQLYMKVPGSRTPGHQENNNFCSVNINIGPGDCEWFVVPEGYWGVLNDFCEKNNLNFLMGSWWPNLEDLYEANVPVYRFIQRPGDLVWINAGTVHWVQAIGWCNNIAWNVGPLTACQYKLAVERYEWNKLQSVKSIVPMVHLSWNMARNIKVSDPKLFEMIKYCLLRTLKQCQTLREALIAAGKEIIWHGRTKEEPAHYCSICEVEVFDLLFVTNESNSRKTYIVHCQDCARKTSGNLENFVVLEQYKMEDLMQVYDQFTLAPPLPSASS
Compound,pIC50 [1],pIC50 [2],pIC50 [3],pEC50 [4],"pIC50 [1, 6]",pIC50 [5],"pIC50 [2, 7]","pIC50 [3, 8]"
"CCOC(=O)c1ccccc1OC(=O)NCc1ccnc(CNCC(=O)N(CC)CCN(C)C)c1 [Compound 29, ethyl 2-({[(2-{[({[2-(dimethylamino)-ethyl](ethyl)-carbamoyl}methyl)-amino]methyl}pyridin-4-yl)methyl]-carbamoyl}-oxy)benzoate]",< 5.60,< 5.60,5.60 to 6.60,5.60 to 6.60,,,,
"CCN(CCN(C)C)C(=O)CNCc1cc(CNC(=O)C(F)(F)C(F)(F)C(F)(F)F)ccn1 [Compound 31, N-[(2-{[({[2-(dimethylamino)ethyl] (ethyl)carbamoyl}-methyl)amino]methyl}-pyridin-4-yl)-methyl]-2,2,3,3,4,4,4-heptafluorobutanamide]",,,,5.60 to 6.60,< 5.60,< 5.60,< 5.60,5.60 to 6.60
"CCN(CC)C(=O)CNCc1cc(/C=N/CCc2ccc(C)cc2)ccn1 [Compound 69, N,N-diethyl-2-[({4-[{[2-(4-methylphenyl)-ethyl]imino}-methyl]pyridin-2-yl}methyl)amino]-acetamide]",,,,< 5.60,< 5.60,,5.60 to 6.60,> 6.60
"CCN(CC)CCCCNCc1cc(/C=N/CCCO)ccn1 [Compound 71, 3-[{[2-({[4-(diethylamino)-butyl]amino}methyl)pyridin-4-yl]methylidene}amino]-propan-1-ol]",,,,> 6.60,< 5.60,,< 5.60,> 6.60
"CCN(CC)CCCCNCc1cc(C2NCC3(CCCC3)CO2)ccn1 (stereo not drawn) [Compound 72, [4-(diethylamino)-butyl][(4-{7-oxa-9-azaspiro[4.5]decan-8-yl}pyridin-2-yl)methyl]amine]",,,,> 6.60,< 5.60,< 5.60,< 5.60,5.60 to 6.60
"CCN(CC)CCCCNCc1cc(/C=N/C(C)CO)ccn1 (stereo not drawn) [Compound 73, 2-[{[2-({[4-(diethylamino)-butyl]amino}-methyl)pyridin-4-yl]methylidene}-amino]propan-1-ol]",,,,> 6.60,,,< 5.60,> 6.60
"CCN(CC)CCCCNCc1cc(/C=N/C(CO)c2ccccc2)ccn1 (stereo not drawn) [Compound 75, 2-[{[2-({[4-(diethylamino)-butyl]amino}-methyl)pyridin-4-yl]methylidene}-amino]-2-phenylethan-1-ol]",,,,> 6.60,,,< 5.60,> 6.60
"CCN(CC)CCCCNCc1cc(/C=N/CC(C)(C)CO)ccn1 [Compound 76, 3-[{[2-({[4-(diethylamino)-butyl]amino}-methyl)pyridin-4-yl]methylidene}-amino]-2,2-dimethylpropan-1-ol]",,,,> 6.60,,< 5.60,< 5.60,5.60 to 6.60
"CCN(CCN(C)C)C(=O)CNCc1cc(/C=N/CCCO)ccn1 [Compound 78, N-[2-(dimethylamino)-ethyl]-N-ethyl-2-[({4-[[(3-hydroxypropyl)imino]-methyl]pyridin-2-yl}-methyl)amino]-acetamide]",,,,> 6.60,,< 5.60,5.60 to 6.60,> 6.60
"CCN(CC)CCCCNCc1cc(/C=N/CC(CO)Cc2ccccc2)ccn1 (stereo not drawn) [Compound 80, 2-{[{[2-({[4-(diethylamino)-butyl]amino}methyl)pyridin-4-yl]methylidene}-amino]methyl}-3-phenylpropan-1-ol]",,,,5.60 to 6.60,< 5.60,5.60 to 6.60,> 6.60,> 6.60
"CCN(CC)CCCCNCc1cc(/C=N/CC(O)Cc2ccccc2)ccn1 (stereo not drawn) [Compound 84, 1-[{[2-({[4-(diethylamino)-butyl]amino}methyl)pyridin-4-yl]methylidene}amino]-3-phenylpropan-2-ol]",,,,> 6.60,< 5.60,< 5.60,< 5.60,5.60 to 6.60
"CCN(CCN(C)C)C(=O)CNCc1cc(/C=N/CC(O)CN(C)C)ccn1 (stereo not drawn) [Compound 86, 2-[({4-[{[3-(dimethylamino)-2-hydroxypropyl]imino}-methyl]pyridin-2-yl}methyl)amino]-N-[2-(dimethylamino)-ethyl]-N-ethylacetamide]",,,,> 6.60,< 5.60,< 5.60,,> 6.60
"CCN(CCN(C)C)C(=O)CNCc1cc(C2NCC(C)(C)CO2)ccn1 (stereo not drawn) [Compound 87, 2-({[4-(5,5-dimethyl-1,3-oxazinan-2-yl)pyridin-2-yl]methyl}amino)-N-[2-(dimethylamino)-ethyl]-N-ethylacetamide]",,,,> 6.60,,< 5.60,5.60 to 6.60,> 6.60
"CCN(CCN(C)C)C(=O)CNCc1cc(/C=N/CC(CO)Cc2ccccc2)ccn1 (stereo not drawn) [Compound 89, 2-[({4-[[(2-benzyl-3-hydroxypropyl)imino]methyl]pyridin-2-yl}methyl)amino]-N-[2-(dimethylamino)ethyl]-N-ethylacetamide]",,,,> 6.60,< 5.60,< 5.60,5.60 to 6.60,> 6.60
"CN(C)C1CCC(CNCc2cc(C=O)ccn2)C1 (stereo not drawn) [Compound 117, 2-[({[3-(dimethylamino)-cyclopenyl]methyl}-amino)methyl] pyridine-4-carbaldehyde]",,,,5.60 to 6.60,< 5.60,,5.60 to 6.60,> 6.60
